The series has as its system CCRIS mutagenicity, Ames/micronucleus/aberration tests. The experiment in a line: CCRIS mutagenicity studies.

Mutagenic call data for 2 compounds are collected here from PubChem BioAssay AID1259407 (Chemical Carcinogenesis Research Information System (CCRIS), 2018).

The source made the active and inactive calls. No rule for the calls is given here.

As for `CCn1cc(C(=O)O)c(=O)c2cc(F)c(-c3ccncc3)c(F)c21`, the mutagenic call runs as follows: (Test System: AMES SALMONELLA TYPHIMURIUM, Strain/Indicator: TA98, Metabolic Activation: MOUSE, LIVER, S-9, AROCLOR 1254, Method: STANDARD PLATE) “inactive; negative”; (Test System: AMES SALMONELLA TYPHIMURIUM, Strain/Indicator: TA98, Metabolic Activation: NONE, Method: STANDARD PLATE) “inactive; negative”; (Test System: AMES SALMONELLA TYPHIMURIUM, Strain/Indicator: TA98, Metabolic Activation: RAT, LIVER, S-9, AROCLOR 1254, Method: STANDARD PLATE) “inactive; negative”; (Test System: AMES SALMONELLA TYPHIMURIUM, Strain/Indicator: TA100, Metabolic Activation: MOUSE, LIVER, S-9, AROCLOR 1254, Method: STANDARD PLATE) “inactive; negative”; (Test System: AMES SALMONELLA TYPHIMURIUM, Strain/Indicator: TA100, Metabolic Activation: NONE, Method: STANDARD PLATE) “inactive; negative”; (Test System: AMES SALMONELLA TYPHIMURIUM, Strain/Indicator: TA100, Metabolic Activation: RAT, LIVER, S-9, AROCLOR 1254, Method: STANDARD PLATE) “inactive; negative”. Further, the mutagenic call runs as follows: (Test System: AMES SALMONELLA TYPHIMURIUM, Strain/Indicator: TA1535, Metabolic Activation: MOUSE, LIVER, S-9, AROCLOR 1254, Method: STANDARD PLATE) “inactive; negative”; (Test System: AMES SALMONELLA TYPHIMURIUM, Strain/Indicator: TA1535, Metabolic Activation: NONE, Method: STANDARD PLATE) “inactive; negative”; (Test System: AMES SALMONELLA TYPHIMURIUM, Strain/Indicator: TA1535, Metabolic Activation: RAT, LIVER, S-9, AROCLOR 1254, Method: STANDARD PLATE) “inactive; negative”; (Test System: AMES SALMONELLA TYPHIMURIUM, Strain/Indicator: TA1537, Metabolic Activation: MOUSE, LIVER, S-9, AROCLOR 1254, Method: STANDARD PLATE) “inactive; negative”; (Test System: AMES SALMONELLA TYPHIMURIUM, Strain/Indicator: TA1537, Metabolic Activation: NONE, Method: STANDARD PLATE) “inactive; negative”; (Test System: AMES SALMONELLA TYPHIMURIUM, Strain/Indicator: TA1537, Metabolic Activation: RAT, LIVER, S-9, AROCLOR 1254, Method: STANDARD PLATE) “inactive; negative”. Also, the mutagenic call runs as follows: (Test System: CHINESE HAMSTER OVARY, Strain/Indicator: CHO-K1-CMZ (HGPRT), Metabolic Activation: NONE) “active; positive”; (Test System: CHINESE HAMSTER V-79, Strain/Indicator: V-79/6-THIOGUANINE, Metabolic Activation: NONE) “active; positive”; (Test System: CHINESE HAMSTER V-79, Strain/Indicator: V-79/6-THIOGUANINE, Metabolic Activation: RAT, LIVER, S-9, AROCLOR 1254) “active; positive”; (Test System: MOUSE LYMPHOMA, Strain/Indicator: L5178Y (TK+/TK-), Metabolic Activation: NONE, Method: SUSPENSION/PLATE) “active; positive”; (Test System: MOUSE LYMPHOMA, Strain/Indicator: L5178Y (TK+/TK-), Metabolic Activation: RAT, LIVER, S-9, Method: SUSPENSION/PLATE) “active; positive”.

For `Clc1ccc(COC(Cn2ccnc2)c2ccc(Cl)cc2Cl)cc1` (stereo not given), the mutagenic call (End Point: IN VITRO MICRONUCLEUS, Test System: HAMSTER V79 CELLS, Metabolic Activation: NONE) is “inactive; negative”; the mutagenic call (Test System: AMES SALMONELLA TYPHIMURIUM, Strain/Indicator: TA97, Metabolic Activation: HAMSTER, LIVER, S-9, AROCLOR 1254 (10 OR 30%), Method: PREINCUBATION) is “inactive; negative”; the mutagenic call (Test System: AMES SALMONELLA TYPHIMURIUM, Strain/Indicator: TA97, Metabolic Activation: NONE, Method: PREINCUBATION) is “inactive; negative”; the mutagenic call (Test System: AMES SALMONELLA TYPHIMURIUM, Strain/Indicator: TA97, Metabolic Activation: RAT, LIVER, S-9, AROCLOR 1254 (10 OR 30%), Method: PREINCUBATION) was “inactive; negative”; the mutagenic call (Test System: AMES SALMONELLA TYPHIMURIUM, Strain/Indicator: TA98, Metabolic Activation: HAMSTER, LIVER, S-9, AROCLOR 1254 (10 OR 30%), Method: PREINCUBATION) is “inactive; negative”; the mutagenic call (Test System: AMES SALMONELLA TYPHIMURIUM, Strain/Indicator: TA98, Metabolic Activation: NONE, Method: PREINCUBATION) was “inactive; negative”. Besides, the mutagenic call (Test System: AMES SALMONELLA TYPHIMURIUM, Strain/Indicator: TA98, Metabolic Activation: RAT, LIVER, S-9, AROCLOR 1254 (10 OR 30%), Method: PREINCUBATION) is “inactive; negative”; the mutagenic call (Test System: AMES SALMONELLA TYPHIMURIUM, Strain/Indicator: TA100, Metabolic Activation: HAMSTER, LIVER, S-9, AROCLOR 1254 (10 OR 30%), Method: PREINCUBATION) was “inactive; negative”; the mutagenic call (Test System: AMES SALMONELLA TYPHIMURIUM, Strain/Indicator: TA100, Metabolic Activation: NONE, Method: PREINCUBATION) is “inactive; negative”; the mutagenic call (Test System: AMES SALMONELLA TYPHIMURIUM, Strain/Indicator: TA100, Metabolic Activation: RAT, LIVER, S-9, AROCLOR 1254 (10 OR 30%), Method: PREINCUBATION) is “inactive; negative”; the mutagenic call (Test System: AMES SALMONELLA TYPHIMURIUM, Strain/Indicator: TA1535, Metabolic Activation: HAMSTER, LIVER, S-9, AROCLOR 1254 (10 OR 30%), Method: PREINCUBATION) is “inactive; negative”; the mutagenic call (Test System: AMES SALMONELLA TYPHIMURIUM, Strain/Indicator: TA1535, Metabolic Activation: NONE, Method: PREINCUBATION) is “inactive; negative”. Under “Test System: AMES SALMONELLA TYPHIMURIUM, Strain/Indicator: TA1535, Metabolic Activation: RAT, LIVER, S-9, AROCLOR 1254 (10 OR 30%), Method: PREINCUBATION”, the mutagenic call was “inactive; negative”.
